Assay results from ChEMBL document CHEMBL1201862, “PubChem BioAssay data set” (2004).
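Compound exposure: 48 hours, 5 concentrations, 96-well plates. At the GI50, growth is halved.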 Activity calls are given as the source filed them. Cut-off read from the data, not from the text of the source: active = GI50 up to about 1.1 µM and inactive = higher.

Key:
Test in all cases: NCI anticancer screen, dose series, 48 h
NCI-H460 = system: NCI-H460
SW-620 = system: SW-620
LOX IMVI = system: LOX IMVI
MDA-MB-231 = system: MDA-MB-231
SK-OV-3 = system: SK-OV-3
UO-31 = system: UO-31
NCI-H226 = system: NCI-H226
MDA-MB-435 = system: MDA-MB-435
MDA-N = system: MDA-N
T47D = system: T47D
HOP-62 = system: HOP-62
TK-10 = system: TK-10
SNB-19 = system: SNB-19
COLO 205 = system: COLO 205
SR = system: SR
Hs-578T = system: Hs-578T
NCI/ADR-RES = system: NCI/ADR-RES
SK-MEL-2 = system: SK-MEL-2
OVCAR-3 = system: OVCAR-3
786-0 = system: 786-0

CCC/N=C1\S/C(=C/c2ccc(OC)c(OC)c2)C(=O)N1c1ccccc1
GI50 (NCI-H460): 61 µM (inactive) | GI50 (SW-620): > 100 µM (inactive) | GI50 (LOX IMVI): > 100 µM (inactive) | GI50 (MDA-MB-231): 20.6 µM (inactive) | GI50 (SK-OV-3): 11.2 µM (inactive) | GI50 (UO-31): 32.5 µM (inactive) | GI50 (NCI-H226): 41.8 µM (inactive) | GI50 (MDA-MB-435): > 100 µM (inactive) | GI50 (MDA-N): > 100 µM (inactive) | GI50 (T47D): > 100 µM (inactive) | GI50 (HOP-62): 2.84 µM (inactive) | GI50 (TK-10): 22.8 µM (inactive) | GI50 (SNB-19): 17.8 µM (inactive) | GI50 (COLO 205): > 100 µM (inactive) | GI50 (SR): 51.8 µM (inactive) | GI50 (Hs-578T): 9.1 µM (inactive) | GI50 (NCI/ADR-RES): 93.1 µM (inactive) | GI50 (SK-MEL-2): 31.8 µM (inactive) | GI50 (OVCAR-3): 12.6 µM (inactive) | GI50 (786-0): 13.1 µM (inactive)

CCCCCCCCCCCCCCCCCC(=O)Nc1ccn(C2OC(CO)C(O)C2O)c(=O)n1 (stereo not given)
GI50 (NCI-H460): 2.69 µM (inactive) | GI50 (SW-620): 57.1 µM (inactive) | GI50 (LOX IMVI): 9.89 µM (inactive) | GI50 (MDA-MB-231): > 100 µM (inactive) | GI50 (SK-OV-3): 35.1 µM (inactive) | GI50 (UO-31): 5.87 µM (inactive) | GI50 (NCI-H226): > 90.2 µM (inactive) | GI50 (MDA-MB-435): 19.3 µM (inactive) | GI50 (MDA-N): > 100 µM (inactive) | GI50 (T47D): > 100 µM (inactive) | GI50 (HOP-62): 2.8 µM (inactive) | GI50 (TK-10): > 100 µM (inactive) | GI50 (SNB-19): 19.4 µM (inactive) | GI50 (COLO 205): 61.9 µM (inactive) | GI50 (SR): 2.14 µM (inactive) | GI50 (Hs-578T): > 100 µM (inactive) | GI50 (NCI/ADR-RES): 30.5 µM (inactive) | GI50 (SK-MEL-2): > 100 µM (inactive) | GI50 (OVCAR-3): 7.93 µM (inactive) | GI50 (786-0): > 40.8 µM (inactive)

Oc1cc(-c2ccccc2)cn2c1nc1ccccc12
GI50 (NCI-H460): 0.76 µM (active) | GI50 (SW-620): 0.544 µM (active) | GI50 (LOX IMVI): 1.12 µM (active) | GI50 (MDA-MB-231): 0.382 µM (active) | GI50 (SK-OV-3): 1.09 µM (active) | GI50 (UO-31): 2.64 µM (inactive) | GI50 (NCI-H226): > 25.4 µM (inactive) | GI50 (MDA-MB-435): 0.189 µM (active) | GI50 (MDA-N): 0.253 µM (active) | GI50 (T47D): 1.5 µM (inactive) | GI50 (HOP-62): 2.4 µM (inactive) | GI50 (TK-10): > 100 µM (inactive) | GI50 (SNB-19): 3.45 µM (inactive) | GI50 (COLO 205): 21.3 µM (inactive) | GI50 (SR): 3.21 µM (inactive) | GI50 (Hs-578T): 2.19 µM (inactive) | GI50 (NCI/ADR-RES): 1.21 µM (inactive) | GI50 (SK-MEL-2): 2.11 µM (inactive) | GI50 (OVCAR-3): 1.22 µM (inactive) | GI50 (786-0): 3.21 µM (inactive)

Nc1ccc(S(=O)(=O)NCc2nccs2)cc1
GI50 (NCI-H460): 26.5 µM (inactive) | GI50 (SW-620): 30.5 µM (inactive) | GI50 (LOX IMVI): 19.9 µM (inactive) | GI50 (MDA-MB-231): 24.9 µM (inactive) | GI50 (SK-OV-3): 32.3 µM (inactive) | GI50 (UO-31): 22.3 µM (inactive) | GI50 (NCI-H226): 22.2 µM (inactive) | GI50 (MDA-MB-435): 19.6 µM (inactive) | GI50 (MDA-N): 22.3 µM (inactive) | GI50 (T47D): 24.1 µM (inactive) | GI50 (HOP-62): 36.8 µM (inactive) | GI50 (TK-10): 22.2 µM (inactive) | GI50 (SNB-19): 29.1 µM (inactive) | GI50 (COLO 205): 18.4 µM (inactive) | GI50 (SR): 31 µM (inactive) | GI50 (Hs-578T): 27.3 µM (inactive) | GI50 (NCI/ADR-RES): 23.8 µM (inactive) | GI50 (SK-MEL-2): 20 µM (inactive) | GI50 (OVCAR-3): 34 µM (inactive) | GI50 (786-0): 28.3 µM (inactive)

Cc1cc(-c2nc3cccc(O)c3s2)ccc1N
GI50 (NCI-H460): 29.1 µM (inactive) | GI50 (SW-620): 46.9 µM (inactive) | GI50 (LOX IMVI): 26.4 µM (inactive) | GI50 (MDA-MB-231): 31.3 µM (inactive) | GI50 (SK-OV-3): 52.8 µM (inactive) | GI50 (UO-31): 4.43 µM (inactive) | GI50 (NCI-H226): 45.1 µM (inactive) | GI50 (MDA-MB-435): 17.4 µM (inactive) | GI50 (MDA-N): 31.3 µM (inactive) | GI50 (T47D): 62.5 µM (inactive) | GI50 (HOP-62): 27 µM (inactive) | GI50 (TK-10): 33.6 µM (inactive) | GI50 (SNB-19): < 0.01 µM (active) | GI50 (COLO 205): 24.2 µM (inactive) | GI50 (SR): 40.8 µM (inactive) | GI50 (Hs-578T): 5.75 µM (inactive) | GI50 (NCI/ADR-RES): 21.1 µM (inactive) | GI50 (SK-MEL-2): 34.7 µM (inactive) | GI50 (OVCAR-3): 44.4 µM (inactive) | GI50 (786-0): 34.1 µM (inactive)

C[N+](C)(C)CC1Cc2ccccc2C1=O (stereo not given)
GI50 (NCI-H460): > 10 µM (inactive) | GI50 (SW-620): 1.87 µM (inactive) | GI50 (LOX IMVI): 4.41 µM (inactive) | GI50 (MDA-MB-231): > 10 µM (inactive) | GI50 (SK-OV-3): > 10 µM (inactive) | GI50 (UO-31): > 10 µM (inactive) | GI50 (NCI-H226): > 10 µM (inactive) | GI50 (MDA-MB-435): > 6.87 µM (inactive) | GI50 (MDA-N): 3.72 µM (inactive) | GI50 (T47D): 2.51 µM (inactive) | GI50 (HOP-62): > 10 µM (inactive) | GI50 (TK-10): > 8.36 µM (inactive) | GI50 (SNB-19): > 10 µM (inactive) | GI50 (COLO 205): 2.93 µM (inactive) | GI50 (SR): 1.22 µM (inactive) | GI50 (Hs-578T): > 10 µM (inactive) | GI50 (NCI/ADR-RES): > 4.78 µM (inactive) | GI50 (SK-MEL-2): > 9.14 µM (inactive) | GI50 (OVCAR-3): > 5.81 µM (inactive) | GI50 (786-0): 3.32 µM (inactive)

OC1(c2ccc(Cl)cc2)c2ccccc2C2=Nc3ccccc3CN21 (stereo not given)
GI50 (NCI-H460): 37.6 µM (inactive) | GI50 (SW-620): 26.9 µM (inactive) | GI50 (LOX IMVI): 25.6 µM (inactive) | GI50 (MDA-MB-231): 34.6 µM (inactive) | GI50 (SK-OV-3): 38.5 µM (inactive) | GI50 (UO-31): 34.4 µM (inactive) | GI50 (NCI-H226): 37.8 µM (inactive) | GI50 (MDA-MB-435): 79.3 µM (inactive) | GI50 (MDA-N): > 70 µM (inactive) | GI50 (T47D): 45.5 µM (inactive) | GI50 (HOP-62): 12.9 µM (inactive) | GI50 (TK-10): > 95.5 µM (inactive) | GI50 (SNB-19): 36.1 µM (inactive) | GI50 (COLO 205): > 69.2 µM (inactive) | GI50 (SR): 5.93 µM (inactive) | GI50 (Hs-578T): 23 µM (inactive) | GI50 (NCI/ADR-RES): 25 µM (inactive) | GI50 (SK-MEL-2): > 51.2 µM (inactive) | GI50 (OVCAR-3): 2.96 µM (inactive) | GI50 (786-0): 13.1 µM (inactive)
